PubChem BioAssay (NCI)
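Cultured in 96-well plates, cells were exposed to test compound for 48 hours across five concentrations. Here, GI50 denotes the concentration required for 50% inhibition of growth. Definition used: TGI = concentration required for complete inhibition of growth.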

Key:
Assay in all cases: NCI tumour cell line growth inhibition, 48 h
NCI-H226 lung = test system: NCI-H226 lung
OVCAR-3 ovarian = test system: OVCAR-3 ovarian
NCI-H522 lung = test system: NCI-H522 lung
CAKI-1 renal = test system: CAKI-1 renal
OVCAR-4 ovarian = test system: OVCAR-4 ovarian
SK-MEL-28 melanoma = test system: SK-MEL-28 melanoma
SNB-19 CNS = test system: SNB-19 CNS
UACC-257 melanoma = test system: UACC-257 melanoma
K-562 leukemia = test system: K-562 leukemia
HCT-116 colon = test system: HCT-116 colon

Compound	TGI (NCI-H226 lung)	TGI (OVCAR-3 ovarian)	TGI (NCI-H522 lung)	TGI (CAKI-1 renal)	TGI (OVCAR-4 ovarian)	TGI (SK-MEL-28 melanoma)	TGI (SNB-19 CNS)	TGI (UACC-257 melanoma)	TGI (K-562 leukemia)	TGI (HCT-116 colon)	GI50 (NCI-H226 lung)	GI50 (OVCAR-3 ovarian)	GI50 (NCI-H522 lung)	GI50 (CAKI-1 renal)	GI50 (OVCAR-4 ovarian)	GI50 (SK-MEL-28 melanoma)	GI50 (SNB-19 CNS)	GI50 (UACC-257 melanoma)	GI50 (K-562 leukemia)	GI50 (HCT-116 colon)
N#CNC(N)=Nc1ccc(Cl)cc1	> 100 µM	> 100 µM	> 100 µM	> 100 µM	> 100 µM	> 100 µM	> 100 µM	> 100 µM	> 100 µM	> 100 µM										
Cc1ccc(NC(=O)c2cc(S(=O)(=O)N3C(=O)NC(=O)NS3(=O)=O)c(S)cc2Cl)cc1	76.6 µM	36.4 µM	> 100 µM	60.9 µM	> 100 µM	> 100 µM	> 100 µM	46.8 µM	68.7 µM	> 100 µM	30.6 µM	16.5 µM	36.1 µM	30.6 µM	47.6 µM	34.4 µM	69.5 µM	17.2 µM	22.2 µM	30.3 µM
CNC(=O)c1nn(C)c2c1C(C)(C)Cc1cnc(Nc3ccc(N4CCN(C)CC4)cc3)nc1-2	> 8.57 µM	> 10 µM	> 5.54 µM	1.22 µM	> 8.34 µM	> 10 µM	> 10 µM	> 9.15 µM	> 7.77 µM	> 9.48 µM	0.958 µM	0.966 µM	0.327 µM	0.114 µM	0.683 µM	2.32 µM	0.322 µM	0.863 µM	0.356 µM	0.346 µM
COCCOCCOC1=CC(=O)c2c(O)ccc(O)c2C1=O	3.88 µM	2.75 µM	2.93 µM	2.04 µM	3.13 µM	2.92 µM	3.28 µM	1.43 µM	3.77 µM	1.05 µM										
CC(C)(C)OC(=O)NCCCCCCCn1c2c(c3ccccc3c1=O)C(=O)c1ccccc1-2	77.8 µM	> 100 µM	> 100 µM	73 µM	> 100 µM	> 100 µM	> 100 µM	> 100 µM	> 100 µM	66.6 µM	31.3 µM	34.3 µM	26.4 µM	32.2 µM	30.5 µM	50.4 µM	32.5 µM	41.4 µM	42.7 µM	17.6 µM
O=C1CCCCN1CCCCC#Cc1cccc(C#Cc2cccnc2)c1	34 µM	71.4 µM	63.7 µM	> 100 µM	32.1 µM	> 100 µM	27.2 µM	49.6 µM	> 100 µM	18.4 µM	12.9 µM	22.6 µM	19 µM	35.5 µM	13.4 µM	38.7 µM	13 µM	17.7 µM	14.7 µM	4.67 µM
O=C(O)[C@H](c1ccccc1)[C@@H](C(=O)O)c1ccccc1	> 100 µM	> 100 µM	> 100 µM	> 100 µM	> 100 µM	> 100 µM	> 100 µM	> 100 µM	> 100 µM	> 100 µM										
COc1cc(NCCCCCCCNC(C)C)c2nccc(C)c2c1	34.3 µM	8.89 µM	35 µM	25.6 µM	15.6 µM	32.1 µM	30 µM	34.2 µM	14.6 µM	19.9 µM	14.6 µM	2.96 µM	16 µM	12.2 µM	4.08 µM	17.7 µM	16 µM	18.2 µM	3.46 µM	6.95 µM
CN(C)C(=S)/N=c1\ssc(=S)n1Cc1ccncc1	> 100 µM	32.9 µM	2.99 µM	75.6 µM	95.2 µM	> 100 µM	> 100 µM	83.5 µM	> 100 µM	47.8 µM										
CCCCN(CC)CC(C(C)=O)c1c(O)c2ccccc2oc1=O (stereo not given)	> 100 µM	> 100 µM	> 100 µM	> 100 µM	> 100 µM	> 100 µM	> 100 µM	> 100 µM	> 100 µM	> 100 µM										
CC(C)CCC1(CCN)C(=O)NC(=O)NC1=O	> 100 µM	> 100 µM	> 100 µM	> 100 µM	> 100 µM	> 100 µM	> 100 µM	> 100 µM	> 100 µM	> 100 µM										
Cc1cc(N(CCC#N)CCC#N)ccc1/C=C(\NC(=O)/C=C/c1ccccc1)C(=O)NN	> 90.2 µM	> 100 µM	> 100 µM	> 100 µM	> 100 µM	> 100 µM	> 55.7 µM	> 100 µM	> 100 µM	> 100 µM										
COc1ccc2c(c1)/C(=C/c1cc(OC)c(OC)c(OC)c1)C(=O)N2	> 100 µM	0.0463 µM			> 100 µM	> 100 µM	> 100 µM	> 100 µM	> 36.3 µM	> 100 µM	> 30.9 µM		0.25 µM	0.118 µM		> 100 µM	0.433 µM	0.615 µM	< 0.0327 µM	0.0272 µM
O=C(O)c1ccccc1/C=N/N=C1c2ccccc2-c2ccccc21	41.6 µM	36 µM	> 100 µM	> 100 µM	> 100 µM	> 100 µM	> 100 µM	> 100 µM	> 100 µM	> 100 µM										
C=CC(OCC)(OCC)OCC	> 100 µM	> 100 µM	> 100 µM	> 100 µM	> 100 µM	> 100 µM	> 100 µM	> 100 µM	> 100 µM	43.6 µM										
O=c1c(F)cn(Cc2ccccc2CCl)c(=O)n1Cc1ccccc1CCl	2.71 µM	3.07 µM	3.01 µM	3.58 µM	12.8 µM	3.32 µM	13.3 µM	2.44 µM	> 100 µM	2.84 µM	0.539 µM	1.54 µM	1.45 µM	1.71 µM	3.5 µM	1.4 µM	3.5 µM		1.89 µM	1.11 µM
